Patent US20070048371A1, “Pharmaceutical formulations/composition of guanfacine suitable for single dose form administration daily” (priority 2005, published 2007)

How the values were obtained:
[1] = Example 3: Phase I single-dose crossover bioequivalence/dose proportionality study, 1 mg, 2 mg, 4 mg tablets, healthy adult volunteers; type: in vivo, human; conditions: for Vd/F: Vz/F; for half-life: t1/2
Procedure: Objectives: The study was designed to assess the bioequivalence of guanfacine 2 mg and 4 mg tablets from table 2 and to investigate the dose proportionality of 1 mg, 2 mg, and 4 mg doses.
Methods: This was a Phase I, randomized, open-label, single-dose, five period, four-treatment crossover design with a separate lead-in period.
Forty-nine (49) healthy adult volunteers completed the study. During period 1, all subjects received a single 1 mg dose administered after and overnight fast. Prior to period 2, subjects were randomly assigned to one of four sequence groups, with 13 subjects per sequence. During treatment periods 2-5, subjects received their assigned treatment of 2 mg or 4 mg. All subjects were to receive two single doses of 2 mg tablets and two single doses of 4 mg tablets during the course of the study. Doses during periods 2-5 were also administered after an overnight fast.

[2] = Example 4: Phase I single-dose crossover bioequivalence study, 2.5 mg versus 2 mg tablets, healthy adult volunteers; type: in vivo, human; conditions: for AUC(0-t): AUC0-last; for Vd/F: Vz/F
Procedure: Objectives: The objective of this study was to investigate the bioequivalence of guanfacine 2.5 mg tablets versus guanfacine 2 mg tablets.
Methods: This Phase I study utilized a randomized, open-label, single-dose, three-treatment crossover design. Forty-eight (48) healthy adult volunteers completed the study. All subjects were randomly assigned to one of 6 treatment sequences and received a 2 mg and 2.5 mg tablet of guanfacine. During treatment periods 1-3, subjects received their assigned treatment (a single oral dose 2 mg or 2.5 mg after an overnight fast).

Compound: N=C(N)NC(=O)Cc1c(Cl)cccc1Cl [guanfacine]
- AUC(0-inf) ([1]; human, in vivo, 4 mg, AUC∞): ~125 ng·h/mL
- Cmax ([1]; human, in vivo, 4 mg, mean Cmax): ~3.58 ng/mL
- Tmax ([1]; human, in vivo, 4 mg, median Tmax): ~5 h
- CL/F ([1]; human, in vivo, po, 1 mg): 560 ± 194 mL/mm
- AUC(0-t) ([1]; human, in vivo, po, 1 mg, AUC0-t): 29.3 ± 8.84 ng·h/mL
- AUC(0-inf) ([1]; human, in vivo, po, 1 mg, AUC0-∞): 32.4 ± 8.78 ng·h/mL
- Cmax ([1]; human, in vivo, po, 1 mg, Cmax): 0.98 ± 0.26 ng/mL
- Vd/F ([1]; human, in vivo, po, 1 mg): 823 ± 249 L
- half-life ([1]; human, in vivo, po, 1 mg): 17.5 ± 3.83 h
- Tmax ([1]; human, in vivo, po, 1 mg, tmax): 6 h
- AUC0-∞ ([1]; human, in vivo, po, 2 mg): 57.8 ± 19.1 ng·h/mL
- AUC(0-t) ([1]; human, in vivo, po, 2 mg): 54.0 ± 17.6 ng·h/mL
- Cmax ([1]; human, in vivo, po, 2 mg): 1.54 ± 0.53 ng/mL
- Vz/F ([1]; human, in vivo, po, 2 mg): 889 ± 241 L
- t1/2 ([1]; human, in vivo, po, 2 mg): 16.7 ± 4.12 h
- AUC(0-t) ([1]; human, in vivo, po, 2 mg, AUC0-t): 55 ± 18 ng·h/mL
- AUC(0-inf) ([1]; human, in vivo, po, 2 mg, AUC0-∞): 58.1 ± 18.8 ng·h/mL
- Cmax ([1]; human, in vivo, po, 2 mg, Cmax): 1.59 ± 0.49 ng/mL
- Vd/F ([1]; human, in vivo, po, 2 mg): 894 ± 328 L
- half-life ([1]; human, in vivo, po, 2 mg): 16.4 ± 3.46 h
- Tmax ([1]; human, in vivo, po, 2 mg, tmax): 6 h
- AUC0-∞ ([1]; human, in vivo, po, 4 mg): 123 ± 44.6 ng·h/mL
- AUC(0-t) ([1]; human, in vivo, po, 4 mg): 119 ± 43.4 ng·h/mL
- Cmax ([1]; human, in vivo, po, 4 mg): 3.59 ± 1.40 ng/mL
- Vz/F ([1]; human, in vivo, po, 4 mg): 866 ± 393 L
- t1/2 ([1]; human, in vivo, po, 4 mg): 16.2 ± 4.15 h
- AUC(0-t) ([1]; human, in vivo, po, 4 mg, AUC0-t): 120 ± 41.5 ng·h/mL
- AUC(0-inf) ([1]; human, in vivo, po, 4 mg, AUC0-∞): 125 ± 46 ng·h/mL
- Cmax ([1]; human, in vivo, po, 4 mg, Cmax): 3.58 ± 1.39 ng/mL
- Vd/F ([1]; human, in vivo, po, 4 mg): 854 ± 294 L
- half-life ([1]; human, in vivo, po, 4 mg): 17.1 ± 5.51 h
- Tmax ([1]; human, in vivo, po, 4 mg, tmax): 5.01 h
- half-life ([1]; human, in vivo): 17.1 ± 5.5 h
- deaths or serious adverse events ([1]; single 1 mg, 2 mg, 4 mg doses, healthy adults): no deaths or serious adverse events
- AUC(0-t) ([2]; human, in vivo, 2.5 mg): ~81.3 ng·h/mL
- AUC(0-inf) ([2]; human, in vivo, 2.5 mg, AUC∞): ~85 ng·h/mL
- Cmax ([2]; human, in vivo, 2.5 mg, mean Cmax): ~2.49 ng/mL
- Tmax ([2]; human, in vivo, 2.5 mg, median Tmax): ~6 h
- CL/F ([2]; human, in vivo, po, 2 mg): 612 ± 303 mL/min
- AUC(0-inf) ([2]; human, in vivo, po, 2 mg, AUC0-inf): 64.2 ± 22.6 ng·h/mL
- AUC(0-t) ([2]; human, in vivo, po, 2 mg): 59.8 ± 20.9 ng·h/mL
- Cmax ([2]; human, in vivo, po, 2 mg, Cmax): 1.71 ± 0.56 ng/mL
- half-life ([2]; human, in vivo, po, 2 mg, T½): 17.7 ± 5.8 h
- Vd/F ([2]; human, in vivo, po, 2 mg): 884 ± 382 L
- Tmax ([2]; human, in vivo, po, 2 mg, tmax): 6 h
- T½ ([2]; human, in vivo, po, 2.5 mg): 16.7 ± 7.4 h
- Vz/F ([2]; human, in vivo, po, 2.5 mg): 809 ± 406 L
- AUC(0-inf) ([2]; human, in vivo, po, 2.5 mg, AUC0-inf): 84.5 ± 34.2 ng·h/mL
- AUC(0-t) ([2]; human, in vivo, po, 2.5 mg): 77.8 ± 30.4 ng·h/mL
- Cmax ([2]; human, in vivo, po, 2.5 mg, Cmax): 2.26 ± 0.67 ng/mL
- Tmax ([2]; human, in vivo, po, 2.5 mg, Tmax): 5 h
- half-life ([2]; human, in vivo, po, 2.5 mg, T½): 19 ± 6.6 h
- Vd/F ([2]; human, in vivo, po, 2.5 mg): 915 ± 390 L
- half-life ([2]; human, in vivo, t1/2): 16.7 ± 7.4 h
- deaths ([2]; single 2 mg and 2.5 mg doses, healthy adults): no deaths
